These results are taken from US9593097B2, “Axl inhibitors” (Pfizer Inc., priority 2014, dated 2017).

The assay has as its target Axl phosphorylation in 293MSR-AxlWT6 cells (Homo sapiens (Human), UniProt P30530). Kind of assay: Cellular Axl phosphorylation ELISA assay (Gas6-stimulated 293MSR-AxlWT6 cells). The assay is classed as cell-based. The conditions noted are these: Table 4A, read-out: CELL AXL IC50. How it is done:
Cellular Axl Phosphorylation ELISA Assay
After 6-7 hrs in tissue culture incubator at 37° C. 5% CO2, medium was removed, serum-free medium was added (with 0.04% bovine serum albumin) and plates were returned to incubator where they remained overnight. […] Media was then removed and lysis buffer was added to wells and shaken at 4° C. for 30 min to generate protein lysates. Subsequently, phosphorylation of Axl was assessed by a sandwich ELISA method using a DuoSet IC Human Phospho-Axl ELISA assay kit (R&D System), an immobilized mouse anti-human Axl antibody and an anti-phospho-tyrosine-HRP antibody as a detection antibody. Antibody-coated plates were (a) incubated in presence of protein lysates at room temperature for 2 hrs, (b) washed seven times in 0.1% Tween 20 in PBS, (c) incubated with secondary antibody (a horseradish peroxidase-conjugated […]) for 2 hrs, (d) washed seven times again, (e) TMB peroxidase substrate (Bio-Rad) was added to initiate a colorimetric reaction and stopped by adding 0.2 N H2SO4, and (f) measured at OD 450 nm using a spectrophotometer. IC50 values were calculated by concentration-response curve fitting using a four-parameter analytic method and reported in μM.
For Table 4B, IC50 values were calculated by concentration-response curve fitting using a four-parameter analytic method and reported in nM.

Chain of Axl phosphorylation in 293MSR-AxlWT6 cells (P30530 26-894): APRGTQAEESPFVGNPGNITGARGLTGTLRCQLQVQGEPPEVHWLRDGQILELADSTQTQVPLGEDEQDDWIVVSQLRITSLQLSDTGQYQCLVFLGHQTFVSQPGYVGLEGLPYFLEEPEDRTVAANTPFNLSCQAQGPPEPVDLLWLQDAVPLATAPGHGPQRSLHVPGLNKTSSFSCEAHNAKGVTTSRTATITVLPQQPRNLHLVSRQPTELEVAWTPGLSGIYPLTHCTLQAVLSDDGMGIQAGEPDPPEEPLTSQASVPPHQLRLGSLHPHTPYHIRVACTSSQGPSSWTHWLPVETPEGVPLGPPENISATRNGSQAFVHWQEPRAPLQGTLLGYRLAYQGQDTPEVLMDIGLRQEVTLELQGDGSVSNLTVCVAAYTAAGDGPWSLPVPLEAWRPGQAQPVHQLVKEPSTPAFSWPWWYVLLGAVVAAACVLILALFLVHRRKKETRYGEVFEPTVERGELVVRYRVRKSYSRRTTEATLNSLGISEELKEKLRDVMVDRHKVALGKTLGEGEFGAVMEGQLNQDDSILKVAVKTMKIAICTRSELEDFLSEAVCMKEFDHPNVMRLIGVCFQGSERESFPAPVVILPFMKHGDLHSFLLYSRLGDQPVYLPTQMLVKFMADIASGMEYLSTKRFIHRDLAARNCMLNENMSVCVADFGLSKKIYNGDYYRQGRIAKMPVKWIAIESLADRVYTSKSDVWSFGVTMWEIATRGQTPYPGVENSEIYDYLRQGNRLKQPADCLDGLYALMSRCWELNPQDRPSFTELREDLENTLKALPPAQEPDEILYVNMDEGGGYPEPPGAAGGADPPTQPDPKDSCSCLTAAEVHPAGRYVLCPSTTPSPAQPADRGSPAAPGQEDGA

Consider `CCOc1nc(C(=O)NC23CC(C2)C3)cc(N2CCC(c3nc(C(N)=O)ccc3OCCN(C)C)CC2)n1` [Example 41, N-(bicyclo[1.1.1]pent-1-yl)-6-(4-{6-carbamoyl-3-[2-(dimethylamino)ethoxy]pyridin-2-yl}piperidin-1-yl)-2-ethoxypyrimidine-4-carboxamide], for which the IC50 came out at 124 nM.

In the case of `C[C@H](CO)NC(=O)c1cc(N2CCC(c3n[nH]c4ncccc34)CC2)nc(OC[C@H]2C[C@H]2C#N)n1` [Example 43, 2-{[(1S,2R)-2-cyanocyclopropyl]methoxy}-N-[(2R)-1-hydroxypropan-2-yl]-6-[4-(1H-pyrazolo[3,4-b]pyridin-3-yl)piperidin-1-yl]pyrimidine-4-carboxamide], the IC50 was 131 nM.

Turning to `CCNC(=O)c1cc(N2CCC(COc3cc(-c4cnn(C)c4)cnc3N)CC2)nc(OCC(C)O)n1` (stereo not drawn) [Example 45, 6-[4-({[2-amino-5-(1-methyl-1H-pyrazol-4-yl)pyridin-3-yl]oxy}methyl)piperidin-1-yl]-N-ethyl-2-(2-hydroxypropoxy) pyrimidine-4-carboxamide], the IC50 was determined as 235 nM.

As to `C[C@H](CO)NC(=O)c1cc(N2CCC(c3n[nH]c4ncccc34)CC2)nc(OCC2CC(F)(F)C2)n1` [Example 47, 2-[(3,3-difluoro-cyclobutyl)methoxy]-N-[(2R)-1-hydroxypropan-2-yl]-6-[4-(1H-pyrazolo[3,4-b]pyridin-3-yl)piperidin-1-yl]pyrimidine-4-carboxamide], the IC50 amounted to 3.84 nM.

Take `CC(C)(C)NC(=O)c1cc(N2CCC(c3n[nH]c4ncncc34)CC2)nc(OC[C@H]2C[C@H]2C#N)n1` [Example 48, N-tert-butyl-2-{[(1S,2R)-2-cyanocyclopropyl]methoxy}-6-[4-(1H-pyrazolo[3,4-d]pyrimidin-3-yl)piperidin-1-yl]pyrimidine-4-carboxamide]: the IC50 was 38.1 nM.

For `C[C@H](CO)NC(=O)c1cc(N2CCC(c3c[nH]c4ncccc34)CC2)nc(OC[C@H]2CCO2)n1` [Example 50, N-[(2R)-1-hydroxypropan-2-yl]-2-[(2R)-oxetan-2-ylmethoxy]-6-[4-(1H-pyrrolo[2,3-b]pyridin-3-yl)piperidin-1-yl]pyrimidine-4-carboxamide], the IC50 was 15.5 nM.

Consider `C[C@H](CO)NC(=O)c1cc(N2CCC(c3c[nH]c4ncccc34)CC2)nc(OC[C@H]2C[C@H]2C#N)n1` [Example 51, 2-{[(1S,2R)-2-cyanocyclopropyl]methoxy}-N-[(2R)-1-hydroxypropan-2-yl]-6-[4-(1H-pyrrolo[2,3-b]pyridin-3-yl)piperidin-1-yl]pyrimidine-4-carboxamide], for which the IC50 was determined as 7.89 nM.

On to `COC[C@@H](C)Oc1nc(C(=O)NC23CC(C2)C3)nc(N2CCC(c3ccc(N)c(C(N)=O)n3)CC2)n1` [Example 54, 4-[4-(5-amino-6-carbamoylpyridin-2-yl)piperidin-1-yl]-N-(bicyclo[1.1.1]pent-1-yl)-6-{[(2R)-1-methoxypropan-2-yl]oxy}-1,3,5-triazine-2-carboxamide], for which the IC50 was 5.27 nM.

Turning to `COC[C@@H](C)Oc1nc(C(=O)NCC2CC2)nc(N2CCC(c3ccc(N)c(C(N)=O)n3)CC2)n1` [Example 58, 4-[4-(5-amino-6-carbamoylpyridin-2-yl)piperidin-1-yl]-N-(cyclo-propylmethyl)-6-{[(2R)-1-methoxypropan-2-yl]oxy}-1,3,5-triazine-2-carboxamide], the IC50 was 23.8 nM.

For `N#CC1(COc2nc(C(=O)NC34CC(C3)C4)nc(N3CCC(c4n[nH]c5ncccc45)CC3)n2)CC1` [Example 59, N-(bicyclo[1.1.1]pent-1-yl)-4-[(1-cyanocyclopropyl)methoxy]-6-[4-(1H-pyrazolo[3,4-b]pyridin-3-yl)piperidin-1-yl]-1,3,5-triazine-2-carboxamide], the IC50 is 2.74 nM.

In the case of `N#C[C@@H]1C[C@@H]1COc1nc(C(=O)NC(CCO)C(F)(F)F)cc(N2CCC(COc3cncnc3N)CC2)n1` (stereo partly drawn) [Example 63, 6-(4-{[(4-aminopyrimidin-5-yl)oxy]methyl}piperidin-1-yl)-2-{[(1S,2R)-2-cyanocyclopropyl]methoxy}-N-(1,1,1-trifluoro-4-hydroxybutan-2-yl)pyrimidine-4-carboxamide], the IC50 worked out at 455 nM.

`N#C[C@@H]1C[C@@H]1COc1nc(C(=O)NC23CC(C2)C3)cc(N2CCC(c3n[nH]c4nccc(OCCO)c34)CC2)n1` [Example 65, N-(bicyclo[1.1.1]pent-1-yl)-2-{[(1S,2R)-2-cyanocyclopropyl]methoxy}-6-{4-[4-(2-hydroxyethoxy)-1H-pyrazolo[3,4-b]pyridin-3-yl]piperidin-1-yl}pyrimidine-4-carboxamide]: the IC50 is 1.86 nM.

With `N#C[C@@H]1C[C@@H]1COc1nc(C(=O)NC23CC(C2)C3)nc(N2CCC(COc3cncnc3N)CC2)n1` [Example 66, 4-(4-{[(4-aminopyrimidin-5-yl)oxy]methyl}piperidin-1-yl)-N-(bicyclo[1.1.1]pent-1-yl)-6-{[(1S,2R)-2-cyanocyclopropyl]methoxy}-1,3,5-triazine-2-carboxamide], the IC50 was 61.8 nM.

In the case of `CS(=O)(=O)COc1ccnc2[nH]nc(C3CCN(c4cc(C(=O)NC56CC(C5)C6)nc(OC[C@H]5C[C@H]5C#N)n4)CC3)c12` [Example 67, N-(bicyclo[1.1.1]pent-1-yl)-2-{[(1S,2R)-2-cyanocyclopropyl]methoxy}-6-(4-{4-[(methylsulfonyl)methoxy]-1H-pyrazolo[3,4-b]pyridin-3-yl}piperidin-1-yl)pyrimidine-4-carboxamide], the IC50 came out at 18.7 nM.

Regarding `CCNC(=O)c1cc(N2CCC(COc3cc(-c4cn(C)cn4)cnc3N)CC2)nc(O[C@H](C)COC)n1` [Example 68, 6-[4-({[2-amino-5-(1-methyl-1H-imidazol-4-yl)pyridin-3-yl]oxy}methyl)piperidin-1-yl]-N-ethyl-2-{[(2R)-1-methoxypropan-2-yl]oxy}pyrimidine-4-carboxamide], the IC50 was 2.94 nM.

Take `C[C@H](CO)Oc1nc(C(=O)NC23CC(C2)C3)cc(N2CCC(c3n[nH]c4ncccc34)CC2)n1` [Example 69, N-(bicyclo[1.1.1]pent-1-yl)-2-{[(2R)-1-hydroxypropan-2-yl]oxy}-6-[4-(1H-pyrazolo[3,4-b]pyridin-3-yl)piperidin-1-yl]pyrimidine-4-carboxamide]: the IC50 came to 228 nM.

Turning to `C[C@@H](O)COc1nc(C(=O)NC23CC(C2)C3)cc(N2CCC(c3n[nH]c4ncccc34)CC2)n1` [Example 70, N-(bicyclo[1.1.1]pent-1-yl)-2-[(2R)-2-hydroxypropoxy]-6-[4-(1H-pyrazolo[3,4-b]pyridin-3-yl)piperidin-1-yl]pyrimidine-4-carboxamide], the IC50 came to 40.8 nM.

With `C[C@H](CO)NC(=O)c1cc(N2CCC(c3n[nH]c4ncccc34)CC2)nc(OCC2CC2)n1` [Example 72, 2-(cyclopropyl-methoxy)-N-[(2R)-1-hydroxypropan-2-yl]-6-[4-(1H-pyrazolo[3,4-b]pyridin-3-yl)piperidin-1-yl]pyrimidine-4-carboxamide], the IC50 came out at 4.31 nM.

Regarding `CS(=O)(=O)COc1cnc2[nH]nc(C3CCN(c4cc(C(=O)NC56CC(C5)C6)nc(OC[C@H]5C[C@H]5C#N)n4)CC3)c2c1` [Example 77, N-(bicyclo[1.1.1]pent-1-yl)-2-{[(1S,2R)-2-cyanocyclopropyl]methoxy}-6-(4-{5-[(methylsulfonyl)methoxy]-1H-pyrazolo[3,4-b]pyridin-3-yl}piperidin-1-yl)pyrimidine-4-carboxamide], the IC50 is 42.8 nM.

As to `N#C[C@@H]1C[C@@H]1COc1nc(C(=O)NC23CC(C2)C3)cc(N2CCC(c3n[nH]c4ncc(OCCO)cc34)CC2)n1` [Example 81, N-(bicyclo[1.1.1]pent-1-yl)-2-{[(1S,2R)-2-cyanocyclopropyl]methoxy}-6-{4-[5-(2-hydroxyethoxy)-1H-pyrazolo[3,4-b]pyridin-3-yl]piperidin-1-yl}pyrimidine-4-carboxamide], the IC50 was determined as 5.21 nM.

Consider `CCNC(=O)c1cc(N2CCC(COc3cc(-c4cnn(CCO)c4)cnc3N)CC2)nc(O[C@H](C)COC)n1` [Example 86, 6-{4-[({2-amino-5-[1-(2-hydroxyethyl)-1H-pyrazol-4-yl]pyridin-3-yl}oxy)methyl]piperidin-1-yl}-N-ethyl-2-{[(2R)-1-methoxypropan-2-yl]oxy} pyrimidine-4-carboxamide], for which the IC50 was determined as 16.7 nM.

Take `N#C[C@@H]1C[C@@H]1COc1nc(C(=O)NCC2CC2)nc(N2CCC(c3ccc(N)c(C(N)=O)n3)CC2)n1` [Example 87, 4-[4-(5-amino-6-carbamoylpyridin-2-yl)piperidin-1-yl]-6-{[(1S,2R)-2-cyanocyclopropyl]methoxy}-N-(cyclopropyl-methyl)-1,3,5-triazine-2-carboxamide]: the IC50 came to 66 nM.

With `N#C[C@@H]1C[C@@H]1COc1nc(C(=O)NCC(F)(F)F)nc(N2CCC(c3ccc(N)c(C(N)=O)n3)CC2)n1` [Example 89, 4-[4-(5-amino-6-carbamoylpyridin-2-yl)piperidin-1-yl]-6-{[(1S,2R)-2-cyanocyclopropyl]methoxy}-N-(2,2,2-trifluoroethyl)-1,3,5-triazine-2-carboxamide], the IC50 was 134 nM.

With `N#CC1(COc2nc(C(=O)NC34CC(C3)C4)nc(N3CCC(COc4cccnc4N)CC3)n2)CC1` [Example 90, 4-(4-{[(2-aminopyridin-3-yl)oxy]methyl}piperidin-1-yl)-N-(bicyclo[1.1.1]pent-1-yl)-6-[(1-cyanocyclopropyl)methoxy]-1,3,5-triazine-2-carboxamide], the IC50 worked out at 6.98 nM.

A word on the IC50: it is the concentration needed to halve the response being measured.
